This is an account of results in ChEMBL document CHEMBL1201862, “PubChem BioAssay data set” (2004).

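Method: 48-hour compound exposure of cells in 96-well plates, five concentrations, linear interpolation of endpoints. Abbreviation: GI50, concentration required for 50% inhibition of growth.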 Calls of active or inactive are those of the source. No stated cut-off is given here; in the data, active = GI50 up to about 1.1 µM and inactive = higher.

What all share (assay): NCI tumour cell line growth inhibition, 48 h
Test [1] has as its system A498.
The subject of test [2] is A549.
Test [3] has as its system CAKI-1.
Test [4] relates to COLO 205.
Test [5] concerns HCT-15.
The subject of test [6] is HL-60.
Test [7] concerns Hs-578T.
For test [8], the system named is IGROV-1.
In test [9] the test system is K562.
Test [10] has as its system LOX IMVI.
Test [11] deals with MCF7.
Test [12] deals with MDA-MB-231.
Test [13] has as its system MDA-MB-435.
For test [14], the system named is MDA-N.
Test [15] has as its system Malme-3M.
Test [16] has as its system NCI-H23.
Test [17] concerns NCI-H460.
Test [18] deals with OVCAR-5.
For test [19], the system named is SF-268.
Test [20] relates to SK-MEL-5.

For the compound `CC(=O)c1sc2c(c1OC(=O)c1ccc(Cl)cc1Cl)c(=O)n(-c1ccccc1)c(=S)n2-c1ccccc1`, the GI50 was 0.286 µM (active) in [1]; 9.98 µM (inactive) in test [2]; 1.43 µM (inactive) in [3]; 1.07 µM (active) in [4]; 2.18 µM in [5]; 3.81 µM (inactive) in test [6]. For the same compound, the GI50 in test [7] was 0.1 µM (active); in test [8], 5.51 µM (inactive); in [9], 4.32 µM (inactive); in [10] it was 0.321 µM (active); in test [11], 8.55 µM (inactive); in test [12], 0.861 µM (active). The GI50 in test [13] was 1 µM (active); in test [14] it was 0.741 µM (active); in test [15] it was 0.252 µM (active); in test [16], 5.83 µM (inactive); in test [17], 1.99 µM (inactive); in test [18], 0.64 µM (active). Moreover, the GI50 in test [19] is 0.552 µM (active); in test [20] it was 1.8 µM (inactive).

With `c1ccc2nc3c(nc2c1)sc1nc2ccccc2n13`, the GI50 in test [1] is 26.1 µM (inactive); in test [2], > 100 µM (inactive); in [3], > 100 µM (inactive); in test [4], > 100 µM (inactive); in test [5] it was > 100 µM; in [6], > 100 µM (inactive). The GI50 is > 100 µM (inactive) in [7]; > 100 µM (inactive) in [8]; > 100 µM (inactive) in test [9]; > 100 µM (inactive) in test [10]; 0.933 µM (active) in [11]; > 100 µM (inactive) in test [12]. The GI50 in test [13], in test [14], in test [15], in test [16], in test [17] and in [18] was > 100 µM (inactive) throughout. For the same compound, the GI50 in test [19] was 56.1 µM (inactive); in test [20] it was > 100 µM (inactive).

Regarding `c1ccc(C2C(=P(c3ccccc3)(c3ccccc3)c3ccccc3)P=PC2[P+](c2ccccc2)(c2ccccc2)c2ccccc2)cc1.c1ccc([B-](c2ccccc2)(c2ccccc2)c2ccccc2)cc1` (stereo not given), the GI50 in test [1] is 0.818 µM (active); in [2], 0.422 µM (active); in [3], 3.66 µM (inactive); in test [4], 0.202 µM (active); in [5] it was 28.1 µM; in test [6], 0.107 µM (active). The GI50 in [7] was 0.679 µM (active); in test [8] it was 0.57 µM (active); in test [9] it was 0.173 µM (active); in test [10], 0.333 µM (active); in [11], 0.543 µM (active); in [12], 0.39 µM (active). The GI50 in test [13] was 0.171 µM (active); in test [14], 0.139 µM (active); in [15], 1.78 µM (inactive); in [16], 0.351 µM (active); in [17], 0.447 µM (active); in test [18], 2.97 µM (inactive). Moreover, the GI50 is 0.695 µM (active) in [19] and 0.191 µM (active) in [20].

On to `O=C1c2cc([N+](=O)[O-])sc2C(=O)c2cc([N+](=O)[O-])sc21`, for which the GI50 in [1] was 16.2 µM (inactive); in test [2], 20.2 µM (inactive); in [3], 3.76 µM (inactive); in test [4] it was 2.02 µM (inactive); in [5], 1.73 µM; in test [6] it was 0.0957 µM (active). The GI50 in test [7] was 9.18 µM (inactive); in test [8], 1.56 µM (inactive); in test [9] it was 0.432 µM (active); in test [10] it was 1.36 µM (inactive); in test [11] it was 2.58 µM (inactive); in test [12], 2.07 µM (inactive). In addition, the GI50 was 2.1 µM (inactive) in [13]; 2.34 µM (inactive) in test [14]; 0.34 µM (active) in test [15]; 5.26 µM (inactive) in [16]; 19.4 µM (inactive) in [17]; 7.11 µM (inactive) in test [18]. The GI50 in test [19] is 3.63 µM (inactive); in test [20] it was 2.51 µM (inactive).

`CCOC(=O)C1(C/C=C/CBr)Cc2ccccc2C1=O` (stereo not given): the GI50 in [1] is 17.9 µM (inactive); in test [2], 10.5 µM (inactive); in test [3] it was 2.42 µM (inactive); in test [4], 3.21 µM (inactive); in [5], 2.24 µM; in test [6], 3.21 µM (inactive). In addition, the GI50 in [7] was 5.53 µM (inactive); in test [8] it was 2.7 µM (inactive); in test [9], 1.87 µM (inactive); in test [10], 1.6 µM (inactive); in test [11], 2.48 µM (inactive); in [12] it was 4.7 µM (inactive). Moreover, the GI50 in test [13] was 1.72 µM (inactive); in [14], 2.2 µM (inactive); in test [15] it was 2.76 µM (inactive); in [16] it was 2.02 µM (inactive); in test [17], 1.75 µM (inactive); in test [18], 3.02 µM (inactive). The GI50 in [19] was 2.91 µM (inactive); in test [20], 2.67 µM (inactive).

As to `COC(=O)CNC(=O)C(Cc1ccccc1)NC(=O)c1ccc(-c2ccc(Cl)cc2Cl)o1` (stereo not given), the GI50 is 10.7 µM (inactive) in [1]; 25 µM (inactive) in test [2]; 19.2 µM (inactive) in [3]; 14.6 µM (inactive) in test [4]; 23.3 µM in [5]; 12.2 µM (inactive) in test [6]. Also, the GI50 in test [7] was 15.3 µM (inactive); in [8], 18.7 µM (inactive); in test [9] it was 21.3 µM (inactive); in test [10] it was 23.5 µM (inactive); in test [11], 17.8 µM (inactive); in test [12], 19 µM (inactive). In addition, the GI50 in test [13] is 26.9 µM (inactive); in test [14] it was 24.8 µM (inactive); in test [15] it was 21.5 µM (inactive); in test [16], 23.7 µM (inactive); in test [17], 15.2 µM (inactive); in test [18], 28.4 µM (inactive). Moreover, the GI50 in [19] was 19.8 µM (inactive); in test [20], 31.6 µM (inactive).

Consider `CC[C@@]1(O)C(=O)OCc2c1cc1n(c2=O)Cc2c-1nc1ccccc1c2/C=N\NC(=O)C(N)=O`, for which the GI50 in test [1] is 0.457 µM (active); in test [2] it was 0.859 µM (active); in [3] it was 0.0655 µM (active); in test [4], > 50.1 µM (inactive); in test [5] it was 14.7 µM; in [6], 0.0582 µM (active). Further, the GI50 in test [7] is 56.9 µM (inactive); in test [8] it was 4.79 µM (inactive); in test [9], 0.505 µM (active); in [10] it was 0.0389 µM (active); in [11], 0.0189 µM (active); in test [12], 31.8 µM (inactive). For the same compound, the GI50 was 2.32 µM (inactive) in test [13]; 5.61 µM (inactive) in test [14]; 7.06 µM (inactive) in test [15]; 0.0543 µM (active) in test [16]; 0.0559 µM (active) in test [17]; 25.8 µM (inactive) in test [18]. In addition, the GI50 in [19] is < 0.0292 µM (active); in test [20] it was 0.222 µM (active).

Regarding `CSc1c(C#N)c(N)nc2c(/N=N\c3ccc(Cl)cc3)c(N)nn12`, the GI50 in test [1] is 39.2 µM (inactive); in test [2] it was 25 µM (inactive); in test [3], 18.7 µM (inactive); in [4], 13.5 µM (inactive); in test [5] it was 2.26 µM; in test [6], 2.31 µM (inactive). The GI50 is 1.23 µM (inactive) in test [7]; 1.85 µM (inactive) in test [8]; 2.08 µM (inactive) in [9]; 1.52 µM (inactive) in test [10]; 2.17 µM (inactive) in test [11]; 2.04 µM (inactive) in [12]. The GI50 in test [13] was 9.89 µM (inactive); in test [14] it was 8.04 µM (inactive); in [15], 6.08 µM (inactive); in [16] it was 2.6 µM (inactive); in test [17], 11.1 µM (inactive); in [18], 17.3 µM (inactive). Moreover, the GI50 in test [19] is 2.39 µM (inactive); in test [20], 14.6 µM (inactive).

In the case of `COC1=C(NC(C)=O)C(=O)c2nc3n(c2C1=O)CCC3`, the GI50 in [1] is 23.6 µM (inactive); in test [2] it was 27.3 µM (inactive); in test [3] it was 18.3 µM (inactive); in test [4], 21.4 µM (inactive); in [5] it was 23.4 µM; in test [6], 10.1 µM (inactive). The GI50 is 30.8 µM (inactive) in [7]; 19.3 µM (inactive) in [8]; 26.7 µM (inactive) in [9]; 16.1 µM (inactive) in test [10]; 23.1 µM (inactive) in test [11]; 13.3 µM (inactive) in test [12]. Further, the GI50 was 3.64 µM (inactive) in test [13]; 2.83 µM (inactive) in test [14]; 20.4 µM (inactive) in test [15]; 20.4 µM (inactive) in test [16]; 27.5 µM (inactive) in test [17]; 18.7 µM (inactive) in [18]. The GI50 was 17.7 µM (inactive) in [19] and 17.5 µM (inactive) in test [20].

`Cc1ccc2[nH]c3c(c2c1)C1CCC(C(C)(C)C)CC1C1C(=O)N(c2ccc(Oc4ccccc4)cc2)C(=O)C31` (stereo not given): the GI50 in [1] was 9.57 µM (inactive); in test [2], 16.3 µM (inactive); in test [3], 12.7 µM (inactive); in [4], 13.5 µM (inactive); in test [5], 56.8 µM; in test [6], 2.57 µM (inactive). Also, the GI50 was 2.81 µM (inactive) in test [7]; 30.8 µM (inactive) in test [8]; 8.91 µM (inactive) in test [9]; 24.2 µM (inactive) in [10]; 56.9 µM (inactive) in test [11]; 20.3 µM (inactive) in [12]. Besides, the GI50 was 58.6 µM (inactive) in test [13]; 50 µM (inactive) in test [14]; 12.3 µM (inactive) in [15]; 19.3 µM (inactive) in test [16]; 16 µM (inactive) in [17]; 26.3 µM (inactive) in test [18]. The GI50 in [19] was 6.75 µM (inactive); in test [20] it was > 92.5 µM (inactive).
